# Key:
# [1] = tested on: patients with severe CRF (breast cancer or prostate cancer); test: double-blind, placebo-controlled crossover study of intravenous TRH infusions in idiopathic cancer-related fatigue; type: in vivo, human
# Protocol: Patient Selection. Patients with a diagnosis of cancer, in this study, breast cancer; or prostate cancer, are screened for CRF using a brief fatigue inventory (BFI) in an oncology clinic setting. The BFI is a simple 9-item self-administered scale and requires about 5-10 minutes to complete. Patients experiencing a severe level of fatigue (BFI≧7) are identified based on this screening. These patients then undergo additional screening with a comprehensive interview and laboratory assessments (hemoglobin, hematocrit, thyroid stimulating hormone concentration, and electrolytes) to identify and exclude patients with medically reversible or other treatable causes of fatigue (viz. anemia, hypothyroidism, electrolyte abnormalities, significant pain dominating the CRF presentation). […]
# The patients selected undergo a comprehensive assessment to investigate different aspects of fatigue. […] Patients are evaluated for two major psychiatric disorders frequently co-occurring with CRF, depressive disorders and anxiety disorders. […]
# The study utilizes a double-blind, placebo-controlled crossover design. […], patients are evaluated in the General Clinical Research Unit (GCRC) of the John Dempsey Hospital and receive intravenous infusions of TRH (0.5 mg for the first active drug trial, 1.5 mg for the second active drug trial) or saline in random order following an ABBA crossover design. […]
# [2] = tested on: patients with spinocerebellar degeneration (SCD); conditions: cited from earlier work
# [3] = tested on: patients with severe CRF (breast cancer or prostate cancer); test: randomized, double-blind, placebo-controlled study of taltirelin in idiopathic cancer-related fatigue; type: in vivo, human; conditions: 10 mg vs placebo; after 6 weeks of treatment
# Protocol: Patient Selection. Patients with a diagnosis of cancer, in this study, breast cancer, or prostate cancer, are screened for CRF using a brief fatigue inventory (BFI) in an oncology clinic setting. The BFI is a simple 9-item self-administered scale and requires about 5-10 minutes to complete. Patients experiencing a severe level of fatigue (BFI≧7) are identified based on this screening. […]
# Both groups undergo a comprehensive assessment to investigate different aspects of fatigue. […] Patients are also evaluated for two major psychiatric disorders frequently co-occurring with CRF, depressive disorders and anxiety disorders. […]
# In the intervention phase of the study, patients receive study medication or placebo based on their group assignments. […] Patients are assessed for their overall status using the clinical global impressions severity of illness scale (CGI-S) at randomization, at week 4 and at the end of the intervention phase. They are also assessed for any global improvement using clinical global impressions improvement scale (CGI-I) at week 4 and at the end of intervention phase. […]
compound,measurement,setting,value
"NC(=O)[C@@H]1CCCN1C(=O)[C@H](Cc1cnc[nH]1)NC(=O)[C@@H]1CCC(=O)N1 [TRH, L-pyroglutamyl-L-histidyl-L-prolineamide]","improving cancer related fatigue, change from baseline in mean fatigue scores assessed using the BFI and MFI","[1]; TRH 0.5 mg or 1.5 mg infusion vs placebo (saline), each comparison point during 4 week treatment intervention phase",superior to placebo
same,"improving quality of life, change from baseline in mean quality of life scores assessed using SF-36","[1]; TRH 0.5 mg or 1.5 mg vs placebo, of treatment",superior to placebo
CN1C(=O)C[C@@H](C(=O)N[C@@H](Cc2c[nH]cn2)C(=O)N2CCC[C@H]2C(N)=O)NC1=O [taltirelin],safety record and side effect profile,[2]; Phase III clinical trials and post-marketing surveillance in Japan,excellent safety record
same,efficacy in the treatment of spinocerebellar degeneration (SCD),[2]; SCD patients,some efficacy
taltirelin,"improving cancer related fatigue, change from baseline in mean fatigue scores assessed using BFI and MFI",[3],superior to placebo
same,"improving quality of life, change from baseline in mean quality of life scores assessed using SF-36",[3],superior to placebo

# Source: patent US7462595B2, “Methods for treating cancer-related fatigue” (priority 2004, dated 2008)
